The text below walks through data of patent publication US7276512B2, “Benzo[a]pyrano[3,2-h]acridin-7-one compounds” (Les Laboratoires Servier, priority 2003, dated 2007).

The test system of test [1] is C38 adenocarcinoma of the colon. In words: Anti-tumour activity with respect to C38 adenocarcinoma of the colon. Format: in vivo. Conditions: i.v. on days 12 and 22, s.c. C38 in B6D2F1 mice. As to the method: Anti-Tumour Activity with Respect to C38 Adenocarcinoma of the Colon
Tumour fragments of C38 adenocarcinoma of the colon weighing approximately 30 mg were implanted under the skin of B6D2F1 mice (Iffa Credo, France) on day 0. After growth of the tumour, the mice were divided into control (18 animals) and treated (6 or 7 animals) groups, which were homogeneous with respect to tumour size. The products were administered twice by the i.v. route on days 12 and 22, at their Maximum Tolerated Dose (MTD), MTD/2 and MTD/4.
The tumours were measured twice a week and the tumour volumes were calculated according to the following formula: volume (mm^3)=length (mm)×[…]/2.
The anti-tumour activity is expressed as % T/C: […]
V0 and Vt being the initial volume of the tumour and its volume at measurement time t, respectively.
The optimum dose is the dose giving the lowest T/C value without toxicity (early death or weight loss greater than 20%).

The test system of test [2] is HT29 human colon carcinoma. In words: In vitro cytotoxicity, Microculture Tetrazolium Assay, HT29. The class given is cell-based. Conditions: HT-29, 4 days incubation; read-out: IC50 (concentration which inhibits proliferation of the treated cells by 50%). As to the method: (§1) Four cell lines were used: • 1 murine leukaemia: L1210, • 1 human epidermoid carcinoma: KB-3-1, • 1 human colon carcinoma: HT29, • 1 human prostate carcinoma: LNCap.
(§2) The cells are cultured in RPMI 1640 complete culture medium containing 10% foetal calf serum, 2 mM glutamine, 50 units/ml of penicillin, 50 μg/ml of streptomycin and 10 mM Hepes, pH=7.4. The cells are distributed on microplates and are exposed to the cytotoxic compounds. The cells are then incubated for 2 days (L1210) or 4 days (human lines). The number of viable cells is then quantified by a colorimetric assay, the Microculture Tetrazolium Assay (Cancer Res. 1987, 47, 939-942). The results are expressed in terms of the IC50 (the concentration of cytotoxic agent which inhibits proliferation of the treated cells by 50%).

The test system of test [3] is LNCap human prostate carcinoma. In words: In vitro cytotoxicity, Microculture Tetrazolium Assay, LNCap. The class given is cell-based. The following applies: 4 days incubation, read-out: IC50 (concentration which inhibits proliferation of the treated cells by 50%). As to the method:
as §1, §2

The subject of test [4] is KB-3-1 human epidermoid carcinoma. In words: In vitro cytotoxicity, Microculture Tetrazolium Assay, KB-3-1. The class given is cell-based. The following applies: KB-3-1, 4 days incubation; read-out: IC50 (concentration which inhibits proliferation of the treated cells by 50%). As to the method:
as §1, §2

The subject of test [5] is L1210 murine leukaemia. Nature of the test: In vitro cytotoxicity, Microculture Tetrazolium Assay, L1210. Format: cell-based. The following applies: L1210, 2 days incubation; read-out: IC50 (concentration which inhibits proliferation of the treated cells by 50%). As to the method:
as §1, §2

The T/C is the result in the treated group divided by that in the control group, in per cent. For the compound `COc1cc2c(c3c1c(=O)c1ccccc1n3C)C=CC(C)(C)O2` [acronycine, reference compound], in test [1] (optimum dose of 100 mg/kg), the T/C is recorded as 27%.
`COc1cc2c(c3c1c(=O)c1c4ccccc4ccc1n3C)[C@@H](OC(C)=O)[C@@H](OC(C)=O)C(C)(C)O2` (racemic) [Example 5, (±)-cis-1,2-Diacetoxy-6-methoxy-3,3,14-trimethyl-1,2,3,14-tetrahydro-7H-benzo[α]pyrano[3,2-h]-acridin-7-one]: the IC50 in test [2] came to 1.18 µM; in test [3] it was 0.57 µM; in test [4] it was 0.14 µM; in test [5], 0.73 µM. This compound also yielded a T/C in test [1] (optimum dose of 4 mg/kg) of 5%. For the same compound, the “inhibition of the tumour growth” value in test [1] (optimum dose of 4 mg/kg) is 95%.
On to `COc1cc2c(c3c1c(=O)c1c4ccccc4ccc1n3C)[C@H]1OC(=O)O[C@H]1C(C)(C)O2` (racemic) [Example 6, (±)-cis-7-Methoxy-4,4,15-trimethyl-15,15c-dihydro-4H-benzo[α][1,3]-dioxolo[4′,5′:4,5]pyrano[3,2-h]acridine-2,8[3aH]-dione], for which the IC50 in test [4] was determined as 0.015 µM; in test [5], 0.06 µM.
